Measurements: ChEMBL document CHEMBL1201862, “PubChem BioAssay data set” (2004)
The source made the active and inactive calls.

Legend:
Beta Lactamase = Beta Lactamase (Pseudomonas aeruginosa, UniProt Q932Y6); assay: beta-lactamase reporter inhibitor potency, dose response, artefact control for TLR9-MyD88 binding inhibitor project, BLA reporter cells, FRET fluorescence (AID 588341); assay type: cell-based;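 also: cell based assay in CHO-K1 cells stably expressing beta-lactamase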
CHO = assay: cytotoxicity in TLR9-MyD88 CHO cells, dose response, cytotoxicity control for TLR9-MyD88 binding inhibitor project, cell-based, luminescence (AID 588339); assay type: functional, hamster; conditions: Cricetulus griseus;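 also: CHO cells stably coexpressing TLR9 and MyD88 fusions from primary screen; compound exposure lasted 48 hours before viability readout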
CAAX prenyl protease 2 = CAAX prenyl protease 2 (Homo sapiens, UniProt Q9Y256); assay: human Rce1 protease inhibitors, dose response, biochemical, yeast membranes, quenched-peptide fluorescence, cherry-pick (AID 588849)
Sequence of CAAX prenyl protease 2 (Q9Y256 whole entry): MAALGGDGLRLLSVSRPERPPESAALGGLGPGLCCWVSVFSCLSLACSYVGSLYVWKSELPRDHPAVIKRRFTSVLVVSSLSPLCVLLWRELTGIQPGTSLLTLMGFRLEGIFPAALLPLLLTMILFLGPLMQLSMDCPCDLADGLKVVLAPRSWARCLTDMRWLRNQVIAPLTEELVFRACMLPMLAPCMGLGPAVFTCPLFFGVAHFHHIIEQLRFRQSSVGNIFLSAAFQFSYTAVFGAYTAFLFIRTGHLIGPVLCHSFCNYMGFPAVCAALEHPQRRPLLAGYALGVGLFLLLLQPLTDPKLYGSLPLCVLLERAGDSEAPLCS

Trypsin = Trypsin (Sus scrofa, UniProt P00761); assay: porcine trypsin inhibitors, dose response, selectivity assay for Rce1 protease inhibitor project, biochemical, quenched peptide fluorescence, cherry-pick (AID 488789)
Sequence of Trypsin (P00761 whole entry): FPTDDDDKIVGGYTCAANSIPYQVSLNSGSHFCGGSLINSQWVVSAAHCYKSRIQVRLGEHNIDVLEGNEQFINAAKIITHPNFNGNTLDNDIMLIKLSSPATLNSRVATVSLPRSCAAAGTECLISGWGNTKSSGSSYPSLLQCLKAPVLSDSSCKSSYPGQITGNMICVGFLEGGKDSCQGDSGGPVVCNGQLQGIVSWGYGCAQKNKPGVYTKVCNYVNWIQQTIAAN

CAAX prenyl protease 1 = CAAX prenyl protease 1 (Saccharomyces cerevisiae S288c, UniProt P47154); assay: Ste24 protease inhibitors, dose response, biochemical, S. cerevisiae, plate reader, cherry-pick (AID 488815)
Sequence of CAAX prenyl protease 1 (P47154 whole entry): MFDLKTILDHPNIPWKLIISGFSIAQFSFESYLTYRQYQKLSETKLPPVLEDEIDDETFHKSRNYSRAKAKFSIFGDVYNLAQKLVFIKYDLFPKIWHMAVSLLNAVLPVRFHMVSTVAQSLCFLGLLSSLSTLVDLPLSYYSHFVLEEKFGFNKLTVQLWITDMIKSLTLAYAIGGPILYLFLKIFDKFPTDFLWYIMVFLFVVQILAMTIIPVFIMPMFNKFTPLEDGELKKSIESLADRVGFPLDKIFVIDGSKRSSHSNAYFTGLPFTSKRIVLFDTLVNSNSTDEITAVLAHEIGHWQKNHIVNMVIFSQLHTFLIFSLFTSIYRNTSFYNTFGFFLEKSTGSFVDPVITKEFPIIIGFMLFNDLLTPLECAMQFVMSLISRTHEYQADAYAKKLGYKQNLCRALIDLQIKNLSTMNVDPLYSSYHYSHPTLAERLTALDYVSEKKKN

[1] = biological target: Apoptotic protease-activating factor 1 (Homo sapiens, UniProt O14727); assay type: functional
Sequence of Apoptotic protease-activating factor 1 (O14727 whole entry): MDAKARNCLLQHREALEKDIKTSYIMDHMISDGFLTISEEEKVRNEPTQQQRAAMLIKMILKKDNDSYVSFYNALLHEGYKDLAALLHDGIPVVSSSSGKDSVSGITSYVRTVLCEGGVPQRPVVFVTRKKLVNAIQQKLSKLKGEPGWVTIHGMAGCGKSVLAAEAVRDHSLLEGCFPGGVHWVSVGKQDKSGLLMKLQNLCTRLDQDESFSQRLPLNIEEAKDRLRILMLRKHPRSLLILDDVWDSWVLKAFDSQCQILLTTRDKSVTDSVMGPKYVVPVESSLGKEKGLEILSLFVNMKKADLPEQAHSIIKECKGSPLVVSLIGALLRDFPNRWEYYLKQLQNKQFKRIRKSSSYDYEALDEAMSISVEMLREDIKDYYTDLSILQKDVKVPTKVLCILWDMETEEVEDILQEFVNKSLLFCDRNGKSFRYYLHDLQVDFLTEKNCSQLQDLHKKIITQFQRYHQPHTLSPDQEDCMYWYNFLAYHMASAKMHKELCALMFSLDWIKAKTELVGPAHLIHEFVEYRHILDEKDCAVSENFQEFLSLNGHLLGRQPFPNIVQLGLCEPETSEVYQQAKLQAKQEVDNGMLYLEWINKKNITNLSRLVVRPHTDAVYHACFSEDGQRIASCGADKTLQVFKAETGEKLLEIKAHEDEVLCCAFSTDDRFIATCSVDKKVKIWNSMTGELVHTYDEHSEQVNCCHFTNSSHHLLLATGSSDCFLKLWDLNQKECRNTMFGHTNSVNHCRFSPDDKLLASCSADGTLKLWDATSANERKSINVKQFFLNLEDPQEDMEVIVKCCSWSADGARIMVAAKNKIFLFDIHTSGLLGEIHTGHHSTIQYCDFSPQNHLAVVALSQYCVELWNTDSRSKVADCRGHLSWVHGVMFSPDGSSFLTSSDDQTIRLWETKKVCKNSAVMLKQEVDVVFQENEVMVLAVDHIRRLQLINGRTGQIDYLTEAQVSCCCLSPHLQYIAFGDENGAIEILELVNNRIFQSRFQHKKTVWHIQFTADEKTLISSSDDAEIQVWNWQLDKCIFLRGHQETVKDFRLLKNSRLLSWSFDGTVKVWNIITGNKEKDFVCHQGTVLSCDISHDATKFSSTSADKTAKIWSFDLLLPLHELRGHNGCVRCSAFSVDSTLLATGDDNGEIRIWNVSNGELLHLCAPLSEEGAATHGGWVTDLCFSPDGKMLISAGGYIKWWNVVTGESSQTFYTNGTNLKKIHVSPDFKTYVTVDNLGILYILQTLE

[2] = biological target: T1, Rac GTPase-activating protein 1 (Homo sapiens, UniProt Q9H0H5); assay: MgcRacGAP GTPase-activating activity inhibitors, confirmation, biochemical, ADP Hunter fluorescence, primary and confirmatory (AID 624330); assay type: functional
T1 sequence (Q9H0H5 whole entry): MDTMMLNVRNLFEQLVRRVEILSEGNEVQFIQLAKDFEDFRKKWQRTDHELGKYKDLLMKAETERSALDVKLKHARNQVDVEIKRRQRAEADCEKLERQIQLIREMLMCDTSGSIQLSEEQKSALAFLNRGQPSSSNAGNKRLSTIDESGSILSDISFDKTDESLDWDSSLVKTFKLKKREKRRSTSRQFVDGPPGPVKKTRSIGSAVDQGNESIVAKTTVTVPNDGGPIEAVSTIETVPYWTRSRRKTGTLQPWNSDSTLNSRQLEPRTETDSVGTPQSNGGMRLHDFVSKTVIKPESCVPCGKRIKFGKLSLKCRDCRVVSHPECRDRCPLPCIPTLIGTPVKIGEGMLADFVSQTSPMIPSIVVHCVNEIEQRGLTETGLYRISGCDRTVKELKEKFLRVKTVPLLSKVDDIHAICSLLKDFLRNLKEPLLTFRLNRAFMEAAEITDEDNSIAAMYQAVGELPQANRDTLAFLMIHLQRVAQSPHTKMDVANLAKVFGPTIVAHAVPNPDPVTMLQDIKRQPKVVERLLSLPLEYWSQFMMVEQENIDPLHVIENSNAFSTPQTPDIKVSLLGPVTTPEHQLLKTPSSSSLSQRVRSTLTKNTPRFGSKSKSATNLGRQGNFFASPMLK

H9c2 = assay: cells; assay type: functional, cell-based; conditions: Rattus norvegicus, H9c2, Myocardium;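 also: confirmatory concentration-response retest of ultra-high-throughput screening hits for modulation of myocardial damage; cell death induced by hydrogen peroxide oxidative stress; compound pretreatment for 60 min then peroxide exposure for 2 h; potency is for protecting the cells against peroxide damage rather than for killing them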
[3] = biological target: T2, Sentrin-specific protease 6 (Homo sapiens, UniProt Q9GZR1); assay: SAR Analysis of small molecule inhibitors of Sentrin-specific protease 6 (SENP6) using a Luminescent assay. [Related pubchem assays (depositor defined):AID2582, AID2599]; assay type: functional
T2 sequence (Q9GZR1 whole entry): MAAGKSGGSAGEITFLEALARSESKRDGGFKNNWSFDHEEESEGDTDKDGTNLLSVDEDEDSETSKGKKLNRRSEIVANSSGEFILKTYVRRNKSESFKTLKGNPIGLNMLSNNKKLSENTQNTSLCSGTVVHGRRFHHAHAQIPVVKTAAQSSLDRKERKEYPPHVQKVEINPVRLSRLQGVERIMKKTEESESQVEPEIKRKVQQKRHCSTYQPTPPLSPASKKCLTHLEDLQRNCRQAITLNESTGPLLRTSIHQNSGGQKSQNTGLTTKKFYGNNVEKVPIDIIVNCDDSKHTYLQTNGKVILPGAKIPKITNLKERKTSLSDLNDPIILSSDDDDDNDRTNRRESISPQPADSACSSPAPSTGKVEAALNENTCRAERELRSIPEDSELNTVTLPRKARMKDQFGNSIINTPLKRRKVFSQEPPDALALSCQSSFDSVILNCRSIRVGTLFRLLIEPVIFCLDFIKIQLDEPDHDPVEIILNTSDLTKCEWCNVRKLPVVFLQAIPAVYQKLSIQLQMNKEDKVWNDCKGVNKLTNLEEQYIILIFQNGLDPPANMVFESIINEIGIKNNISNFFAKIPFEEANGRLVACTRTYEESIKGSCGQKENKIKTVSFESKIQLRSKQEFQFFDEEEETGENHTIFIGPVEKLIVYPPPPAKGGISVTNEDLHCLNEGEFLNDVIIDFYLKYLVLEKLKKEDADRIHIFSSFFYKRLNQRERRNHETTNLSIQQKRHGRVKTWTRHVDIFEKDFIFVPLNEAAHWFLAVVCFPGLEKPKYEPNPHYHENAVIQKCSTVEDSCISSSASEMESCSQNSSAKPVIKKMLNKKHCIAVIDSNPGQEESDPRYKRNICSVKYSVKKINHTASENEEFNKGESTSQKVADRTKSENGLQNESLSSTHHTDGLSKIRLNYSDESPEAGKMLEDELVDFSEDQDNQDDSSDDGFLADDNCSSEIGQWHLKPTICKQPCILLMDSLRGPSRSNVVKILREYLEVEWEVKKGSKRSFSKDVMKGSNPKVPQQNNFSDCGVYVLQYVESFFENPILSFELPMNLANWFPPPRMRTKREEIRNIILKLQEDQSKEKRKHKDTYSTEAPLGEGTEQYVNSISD

Caspase-3 = biological target: T3, Caspase-3 (Homo sapiens, UniProt P42574); assay: SAR Analysis of small molecule inhibitors of Sentrin-specific proteases (SENPs) using a Caspase-3 Selectivity assay. [Related pubchem assays (depositor defined):AID2540, AID2599, AID434973, AID489001]; assay type: functional
T3 sequence (P42574 whole entry): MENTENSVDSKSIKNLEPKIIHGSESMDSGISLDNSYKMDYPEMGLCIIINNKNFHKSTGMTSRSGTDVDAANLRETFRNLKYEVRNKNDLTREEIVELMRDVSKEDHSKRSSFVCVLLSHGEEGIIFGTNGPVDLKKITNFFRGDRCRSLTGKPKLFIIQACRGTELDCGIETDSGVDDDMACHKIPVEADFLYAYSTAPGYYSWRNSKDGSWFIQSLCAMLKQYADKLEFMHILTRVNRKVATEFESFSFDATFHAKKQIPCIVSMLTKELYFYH

[4] = biological target: T4, Sentrin-specific protease 8 (Homo sapiens, UniProt Q96LD8); assay: SENP8 protease inhibitors, SAR follow-up, biochemical, luminescence (AID 504501); assay type: functional
T4 sequence (Q96LD8 whole entry): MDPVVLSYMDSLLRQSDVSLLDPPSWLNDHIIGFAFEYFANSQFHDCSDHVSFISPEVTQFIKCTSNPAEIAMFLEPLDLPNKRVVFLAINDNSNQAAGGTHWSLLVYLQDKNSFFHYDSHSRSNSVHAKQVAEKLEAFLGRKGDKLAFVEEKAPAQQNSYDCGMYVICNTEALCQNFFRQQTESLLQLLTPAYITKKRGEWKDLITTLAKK

[5] = biological target: T5, Sentrin-specific protease 7 (Homo sapiens, UniProt Q9BQF6); assay: SENP7 protease inhibitors, SAR follow-up, biochemical, luminescence (AID 504497); assay type: functional
T5 sequence (Q9BQF6 whole entry): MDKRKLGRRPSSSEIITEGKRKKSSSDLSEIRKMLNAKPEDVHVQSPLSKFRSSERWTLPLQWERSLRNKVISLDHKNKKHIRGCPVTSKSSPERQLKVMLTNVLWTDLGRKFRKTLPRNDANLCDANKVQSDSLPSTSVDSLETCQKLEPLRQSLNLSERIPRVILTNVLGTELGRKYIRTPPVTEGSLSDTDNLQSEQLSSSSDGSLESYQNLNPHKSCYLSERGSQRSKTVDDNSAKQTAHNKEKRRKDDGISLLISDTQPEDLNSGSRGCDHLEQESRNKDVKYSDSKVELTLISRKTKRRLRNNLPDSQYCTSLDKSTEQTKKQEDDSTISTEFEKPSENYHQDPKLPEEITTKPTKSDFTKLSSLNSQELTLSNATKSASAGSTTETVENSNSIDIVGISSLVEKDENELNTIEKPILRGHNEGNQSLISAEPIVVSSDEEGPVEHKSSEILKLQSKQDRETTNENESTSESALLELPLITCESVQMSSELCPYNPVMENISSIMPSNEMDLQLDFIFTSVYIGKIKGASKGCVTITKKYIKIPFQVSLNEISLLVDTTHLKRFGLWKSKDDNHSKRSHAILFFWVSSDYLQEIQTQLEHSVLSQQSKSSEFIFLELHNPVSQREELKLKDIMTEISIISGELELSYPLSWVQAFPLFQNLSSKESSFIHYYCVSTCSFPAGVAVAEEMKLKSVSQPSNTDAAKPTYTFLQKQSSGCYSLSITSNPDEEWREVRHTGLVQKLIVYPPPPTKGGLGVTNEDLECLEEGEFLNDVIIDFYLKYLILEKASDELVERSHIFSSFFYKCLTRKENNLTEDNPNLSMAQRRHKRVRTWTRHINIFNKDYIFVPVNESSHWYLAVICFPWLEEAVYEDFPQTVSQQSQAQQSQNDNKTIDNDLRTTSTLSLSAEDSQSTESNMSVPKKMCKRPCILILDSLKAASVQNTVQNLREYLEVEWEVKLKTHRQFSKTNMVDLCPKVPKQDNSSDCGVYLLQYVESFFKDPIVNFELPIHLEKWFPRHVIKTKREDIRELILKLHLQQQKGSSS

Candida albicans [6] = assay: growth inhibition of azole-resistant C. albicans, dose response, CaCi-8 strain, Alamar Blue, dry powder, set 3 (AID 488905); assay type: functional, organism-based
Candida albicans [7] = assay: reversal of fluconazole resistance in C. albicans, dose response, CaCi-2 strain, Alamar Blue, dry powder, set 3 (AID 488907); assay type: functional, organism-based
[8] = biological target: DNA dC->dU-editing enzyme APOBEC-3G (Homo sapiens, UniProt Q9HC16); assay: APOBEC3G deaminase inhibitors, SAR follow-up, biochemical, fluorescence, single-stranded DNA substrate (AID 602136); assay type: functional; conditions: read-out: IC50_Mean
Sequence of DNA dC->dU-editing enzyme APOBEC-3G (Q9HC16 whole entry): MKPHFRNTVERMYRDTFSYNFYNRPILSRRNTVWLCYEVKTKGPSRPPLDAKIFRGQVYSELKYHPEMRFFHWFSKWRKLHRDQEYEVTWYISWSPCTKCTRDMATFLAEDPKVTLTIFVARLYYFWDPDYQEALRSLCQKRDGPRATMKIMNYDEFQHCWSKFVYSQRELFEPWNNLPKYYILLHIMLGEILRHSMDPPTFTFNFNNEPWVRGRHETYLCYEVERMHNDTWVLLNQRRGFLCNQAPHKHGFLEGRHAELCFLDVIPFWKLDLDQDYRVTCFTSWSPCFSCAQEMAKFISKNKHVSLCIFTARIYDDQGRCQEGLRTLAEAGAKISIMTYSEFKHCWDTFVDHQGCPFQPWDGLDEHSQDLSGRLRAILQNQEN

[9] = biological target: DNA dC->dU-editing enzyme APOBEC-3A (Homo sapiens, UniProt P31941); assay: SAR analysis of small molecule inhibitors of APOBEC3A DNA Deaminase via a fluorescence-based single-stranded DNA deaminase assay.; assay type: functional; conditions: read-out: IC50_Mean
Sequence of DNA dC->dU-editing enzyme APOBEC-3A (P31941 whole entry): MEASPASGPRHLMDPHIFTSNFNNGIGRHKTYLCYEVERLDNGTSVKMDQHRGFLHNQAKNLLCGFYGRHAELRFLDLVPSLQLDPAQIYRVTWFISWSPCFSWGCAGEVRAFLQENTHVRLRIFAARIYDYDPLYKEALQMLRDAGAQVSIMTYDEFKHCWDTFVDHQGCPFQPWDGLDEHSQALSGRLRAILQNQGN

HEK293 = assay: inhibitors of LMP1-driven NF-kB reporter, dose response, cell-based, HEK293, luciferase, cherry-pick (AID 588343); assay type: functional; conditions: Homo sapiens
[10] = biological target: T6, Short transient receptor potential channel 4 (Mus musculus, UniProt Q9QUQ5); assay: mouse TRPC4 channel inhibitors, dose response, cell-based, HEK293 TRPC4/mu-opioid, Fluo-4 calcium (AID 434942); assay type: functional;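 also: potency of inhibitors blocking the TRPC4 calcium response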
T6 sequence (Q9QUQ5 whole entry): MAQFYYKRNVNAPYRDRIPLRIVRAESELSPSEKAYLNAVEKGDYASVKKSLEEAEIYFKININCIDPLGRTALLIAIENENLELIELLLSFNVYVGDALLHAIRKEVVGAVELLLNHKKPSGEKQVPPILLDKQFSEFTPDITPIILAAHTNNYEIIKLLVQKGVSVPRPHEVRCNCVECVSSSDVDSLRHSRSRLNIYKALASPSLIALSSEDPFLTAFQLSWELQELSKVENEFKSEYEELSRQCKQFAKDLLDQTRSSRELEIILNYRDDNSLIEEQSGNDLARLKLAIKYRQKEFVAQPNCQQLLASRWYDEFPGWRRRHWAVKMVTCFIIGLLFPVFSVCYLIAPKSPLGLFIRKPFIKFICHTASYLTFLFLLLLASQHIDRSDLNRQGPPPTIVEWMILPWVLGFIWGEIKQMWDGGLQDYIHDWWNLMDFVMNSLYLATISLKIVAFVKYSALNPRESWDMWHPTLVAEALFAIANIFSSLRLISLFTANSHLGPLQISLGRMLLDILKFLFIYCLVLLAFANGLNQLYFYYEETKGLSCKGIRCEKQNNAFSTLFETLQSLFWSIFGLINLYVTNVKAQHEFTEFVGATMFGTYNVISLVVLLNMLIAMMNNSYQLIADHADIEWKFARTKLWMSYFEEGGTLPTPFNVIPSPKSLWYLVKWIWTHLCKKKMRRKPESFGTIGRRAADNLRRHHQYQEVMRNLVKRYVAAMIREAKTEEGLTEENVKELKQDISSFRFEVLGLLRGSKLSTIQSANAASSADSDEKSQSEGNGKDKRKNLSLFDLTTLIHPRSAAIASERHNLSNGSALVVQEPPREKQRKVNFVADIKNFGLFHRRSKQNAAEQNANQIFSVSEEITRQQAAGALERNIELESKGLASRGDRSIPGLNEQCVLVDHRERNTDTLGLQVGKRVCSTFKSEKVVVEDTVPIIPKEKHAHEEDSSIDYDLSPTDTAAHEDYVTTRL

[11] = biological target: Beta-2 adrenergic receptor (Homo sapiens, UniProt P07550); assay: beta2AR agonists driving receptor internalization, dose response, cell-based, FAP fluorogen, flow cytometry, cherry pick 1 (AID 588763); assay type: functional
Sequence of Beta-2 adrenergic receptor (P07550 whole entry): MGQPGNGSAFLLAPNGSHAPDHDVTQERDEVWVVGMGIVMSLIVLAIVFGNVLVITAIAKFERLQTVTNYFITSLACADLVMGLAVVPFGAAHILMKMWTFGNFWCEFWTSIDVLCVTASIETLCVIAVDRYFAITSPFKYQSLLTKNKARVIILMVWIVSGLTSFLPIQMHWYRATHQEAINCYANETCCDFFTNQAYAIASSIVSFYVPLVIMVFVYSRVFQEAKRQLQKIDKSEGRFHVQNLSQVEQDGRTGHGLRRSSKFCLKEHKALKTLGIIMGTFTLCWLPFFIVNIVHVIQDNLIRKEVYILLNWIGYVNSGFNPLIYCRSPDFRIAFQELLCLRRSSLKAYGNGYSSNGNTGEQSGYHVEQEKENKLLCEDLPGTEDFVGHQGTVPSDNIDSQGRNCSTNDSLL

Sequence of Beta Lactamase (Q932Y6 whole entry, the tested form may be a part): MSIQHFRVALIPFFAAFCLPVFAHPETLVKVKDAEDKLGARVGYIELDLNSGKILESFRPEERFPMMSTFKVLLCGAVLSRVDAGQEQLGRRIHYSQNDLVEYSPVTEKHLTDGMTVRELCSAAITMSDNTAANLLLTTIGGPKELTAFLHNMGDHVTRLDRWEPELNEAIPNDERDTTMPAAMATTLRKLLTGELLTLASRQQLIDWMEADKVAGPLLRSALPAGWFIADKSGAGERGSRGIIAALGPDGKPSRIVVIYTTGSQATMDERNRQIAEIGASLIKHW

COc1ccccc1N1N=C(c2cccs2)CC1c1ccccc1 (centres undefined)
IC50 (Beta Lactamase): 3.62 µM (active) | IC50 (CHO): > 49.7 µM (inactive)

COc1ccc(-n2c(N)c(C(=O)NCc3ccco3)c3nc4ccccc4nc32)c(OC)c1
AC50 (CAAX prenyl protease 2): 2.3 µM (active) | AC50 (Trypsin): 2.87 µM (active) | AC50 (CAAX prenyl protease 1): 5.18 µM (active)

COc1ccc(NCc2cc3cc(OC)ccc3nc2O)cc1
IC50 [1]: 62.5 µM (active) | IC50 [2]: 89.3 µM (active) | IC50 (H9c2): > 79 µM (inactive)

CCc1ccc(-c2nc(/C=C/c3ccccc3)no2)cc1
IC50 [3]: > 99 µM (inactive) | IC50 (Caspase-3): 80 µM (active) | IC50 [4]: > 99 µM (inactive) | IC50 [5]: 46.5 µM (active)

N#Cc1ccc(C(=O)N2CCN(c3ccccn3)CC2)cc1
AC50 (Candida albicans [6]): 128 µM (active) | AC50 (Candida albicans [7]): 2.66 µM (active)

Fc1ccc(OCCSc2nc3cccnc3[nH]2)cc1
IC50 [8]: > 99 µM (inactive) | IC50 [9]: > 99 µM (inactive)

Brc1ccc2ncnc(NCc3ccccc3)c2c1
AC50 (HEK293): 5.03 µM (active)

Oc1ccccc1Nc1nc(NCc2ccco2)c2ccccc2n1
EC50 [10]: 2.11 µM (active) | EC50 [11]: 0.492 µM (active)
